From ChEMBL document CHEMBL1131844, “Substituted indoles as potent and orally active 5-lipoxygenase activating protein (FLAP) inhibitors” (Bioorg Med Chem Lett, 1999)

Experiments:
[1] = biological target: T1, Arachidonate 5-lipoxygenase-activating protein (Homo sapiens, UniProt P20292); assay: Measuring the affinity of leukotriene synthesis inhibitor for 5-lipoxygenase activating protein by using [125I]L-691831 as radioligand.
T1 sequence (P20292 whole entry): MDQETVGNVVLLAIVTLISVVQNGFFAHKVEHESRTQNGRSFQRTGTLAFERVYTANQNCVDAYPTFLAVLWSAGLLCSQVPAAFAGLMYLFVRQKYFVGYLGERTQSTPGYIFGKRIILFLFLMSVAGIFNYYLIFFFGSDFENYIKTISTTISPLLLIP

Homo sapiens [2] = species on record: Homo sapiens; assay: The drug dependent inhibition of LTB4 biosynthesis in human whole blood (HWB) activated with the ionophore A-23187; assay type: functional, organism-based
Homo sapiens [3] = species on record: Homo sapiens; assay: In vitro inhibition of LTB4 biosynthesis in Ca++ ionophore activated human polymorphonuclear (HPMN) leukocytes.; assay type: functional
[4] = plasma level at 2 hr after administration of the compound; assay type: ADME, organism-based; settings: rat
[5] = Bioavailability in rat; assay type: ADME, organism-based; settings: in vivo
Rattus norvegicus [6] = assay: In vivo inhibitory activity against LTB4 biosynthesis by rat pleurisy model (1 pre treatment time periods); assay type: functional
Rattus norvegicus [7] = assay: Compound was evaluated in vivo for its functional activity(in percent) in a hyperreactive rat model of dyspnea; design: concentration or dose not given beside the values
Rattus norvegicus [8] = assay: In vivo inhibitory activity against LTB4 biosynthesis by rat pleurisy model (3 pre treatment time periods); assay type: functional
[9] = Plasma level at 2 hr after administration of the compound; assay type: ADME, organism-based; settings: rat
Canis familiaris [10] = assay: Inhibition of ex vivo urinary leukotriene E4 (LTE4) excretion from A-23,187-challenged dog after intravenous infusion of 2.5 ug/kg/min; assay type: functional; settings: Canis lupus familiaris, Urine
Canis familiaris [11] = assay: Inhibition of ex vivo leukotriene B4 (LTB4) in whole blood of A-23,187-challenged dog after intravenous infusion of 2.5 ug/kg/min; assay type: functional; settings: Canis lupus familiaris
Rattus norvegicus [12] = assay: In vivo inhibitory activity against LTB4 biosynthesis by rat pleurisy model (2h pre treatment time period); assay type: functional
Rattus norvegicus [13] = assay: In vivo inhibitory activity against LTB4 biosynthesis by rat pleurisy model (6 pre treatment time periods); assay type: functional
Rattus norvegicus [14] = assay: In vivo inhibitory activity against LTB4 biosynthesis by rat pleurisy model (3h pre treatment time periods); assay type: functional
[15] = biological target: T1, Arachidonate 5-lipoxygenase-activating protein; assay: Measuring the affinity of leukotriene synthesis inhibitor for 5-Lipoxygenase activating protein (FLAP) by using [125I]L-691831 as radioligand.
Rattus norvegicus [16] = assay: In vivo inhibitory activity against LTB4 biosynthesis by rat pleurisy model (v3h pre treatment time periods); assay type: functional
Rattus norvegicus [17] = assay: In vivo inhibitory activity against LTB4 biosynthesis by rat pleurisy model (6h pre treatment time periods); assay type: functional

| SMILES | IC50 [1] | IC50 (Homo sapiens [2]; Homo sapiens, Blood) | IC50 (Homo sapiens [3]; Homo sapiens) | further results |
| --- | --- | --- | --- | --- |
| CC(C)(C)Sc1c(CC(C)(C)C(=O)O)n(Cc2ccc(Cl)cc2)c2ccc(OCc3nc4cc(C(F)(F)F)ccc4s3)cc12 | 186 nM | > 3000 nM | 22 nM | – |
| CC(C)(C)Sc1c(CC(C)(C)C(=O)O)n(Cc2ccc(Cl)cc2)c2cccc(OCc3ccc4ccccc4n3)c12 | 85 nM | – | – | – |
| CC(C)(C)Sc1c(CC(C)(C)C(=O)O)n(Cc2ccc(Cl)cc2)c2ccc(OCc3ccnc4ccccc34)cc12 | 62 nM | – | – | – |
| CC(C)(C)Sc1c(CC(C)(C)C(=O)O)n(Cc2ccc(Cl)cc2)c2ccc(OCc3nc4ccccc4s3)cc12 | 2 nM | 260 nM | 3 nM | concentration at 2 h [4]: 6 µM; bioavailability [5]: 81%; ED50 (Rattus norvegicus [8]): 0.85 mg/kg; Functional activity in dyspnea model (Rattus norvegicus [7]): 45% |
| CC(C)(C)Sc1c(CC(C)(C)C(=O)O)n(Cc2ccc(Cl)cc2)c2ccc(OCc3ccc4c(n3)CCCC4)cc12 | 8 nM | 2890 nM | 3 nM | – |
| Cc1nc2ccc(COc3ccc4c(c3)c(SC(C)(C)C)c(CC(C)(C)C(=O)O)n4Cc3ccc(Cl)cc3)cc2s1 | 40 nM | > 3000 nM | 6 nM | – |
| CC(C)(C)Sc1c(CC(C)(C)C(=O)O)n(Cc2ccc(Cl)cc2)c2ccc(OCc3ccncc3)cc12 | 48 nM | > 3000 nM | 6 nM | – |
| CC(C)(C)Sc1c(CC(C)(C)C(=O)O)n(Cc2ccc(Cl)cc2)c2ccc(/C=C/c3ccc4ccccc4n3)cc12 | 11 nM | > 3000 nM | 12 nM | – |
| C[C@@H](COc1ccc2c(c1)c(SC(C)(C)C)c(CC(C)(C)C(=O)O)n2Cc1ccc(Cl)cc1)c1ccccn1 | – | 280 nM | 2 nM | concentration at 2 h [4]: 13 µM; bioavailability [5]: 60%; ED50 (Rattus norvegicus [14]): 0.16 mg/kg; IC50 [15]: 6 nM; Functional activity in dyspnea model (Rattus norvegicus [7]): 64% |
| COc1ccc2nc(COc3ccc4c(c3)c(SC(C)(C)C)c(CC(C)(C)C(=O)O)n4Cc3ccc(Cl)cc3)sc2c1 | 73 nM | 670 nM | 8 nM | – |
| CC(C)(C)Sc1c(CC(C)(C)C(=O)O)n(Cc2ccc(Cl)cc2)c2ccc(OCc3cnccn3)cc12 | 7 nM | 400 nM | 4 nM | – |
| CCCC(Oc1ccc2c(c1)c(SC(C)(C)C)c(CC(C)(C)C(=O)O)n2Cc1ccc(Cl)cc1)c1ccc2ccccc2n1 (stereo unspecified) | 350 nM | > 3000 nM | > 52 nM | – |
| CC(C)(C)Sc1c(CC(C)(C)C(=O)O)n(Cc2ccc(Cl)cc2)c2ccc(OCc3cscn3)cc12 | 5 nM | 270 nM | 3 nM | concentration at 2 h [4]: 8 µM; bioavailability [5]: 98%; ED50 (Rattus norvegicus [16]): 0.12 mg/kg; Functional activity in dyspnea model (Rattus norvegicus [7]): 61% |
| CC(C)(C)Sc1c(CC(C)(C)C(=O)O)n(Cc2ccc(Cl)cc2)c2ccc(OCc3cccnc3)cc12 | 59 nM | > 3000 nM | 8 nM | – |
| CC(C)(C)Sc1c(CC(C)(C)C(=O)O)n(Cc2ccc(Cl)cc2)c2c(OCc3ccc4ccccc4n3)cccc12 | 1950 nM | – | – | – |
| CC(C)(C)Sc1c(CC(C)(C)C(=O)O)n(Cc2ccc(Cl)cc2)c2ccc(OCc3ccccn3)cc12 | 3 nM | 130 nM | 2 nM | concentration at 2 h [4]: 9 µM; bioavailability [5]: 48%; ED50 (Rattus norvegicus [14]): 0.3 mg/kg; ED50 (Rattus norvegicus [17]): 0.09 mg/kg; Functional activity in dyspnea model (Rattus norvegicus [7]): 77% |
| CC(C)(C)Sc1c(CC(C)(C)C(=O)O)n(Cc2ccc(Cl)cc2)c2ccc(OCc3nc4ccccc4o3)cc12 | 5 nM | 2500 nM | < 7 nM | – |
| Cc1nc(COc2ccc3c(c2)c(SC(C)(C)C)c(CC(C)(C)C(=O)O)n3Cc2ccc(Cl)cc2)cs1 | 3 nM | 130 nM | 2 nM | concentration at 2 h [4]: 8 µM; bioavailability [5]: 98%; ED50 (Rattus norvegicus [14]): 0.15 mg/kg; Functional activity in dyspnea model (Rattus norvegicus [7]): 48% |
| CC(C)(C)Sc1c(CC(C)(C)C(=O)O)n(Cc2ccc(Cl)cc2)c2ccc(OCc3cccs3)cc12 | 70 nM | > 3000 nM | 4 nM | – |
| CC(C)c1csc(COc2ccc3c(c2)c(SC(C)(C)C)c(CC(C)(C)C(=O)O)n3Cc2ccc(Cl)cc2)n1 | 13 nM | > 3000 nM | 3 nM | – |
| CC(C)(C)Sc1c(CC(C)(C)C(=O)O)n(Cc2ccc(Cl)cc2)c2ccc(OCc3ccc4cc(F)c(F)cc4n3)cc12 | 14 nM | > 3000 nM | 7 nM | – |
| C[C@H](COc1ccc2c(c1)c(SC(C)(C)C)c(CC(C)(C)C(=O)O)n2Cc1ccc(Cl)cc1)c1ccccn1 | 12 nM | 470 nM | 3 nM | – |
| CC(C)(C)Sc1c(CC(C)(C)C(=O)O)n(Cc2ccc(Cl)cc2)c2ccc(OCc3cccc(Cl)n3)cc12 | 8 nM | 410 nM | 3 nM | concentration at 2 h [4]: 3.5 µM; bioavailability [5]: 37%; Functional activity in dyspnea model (Rattus norvegicus [7]): 34% |
| CC(COc1ccc2c(c1)c(SC(C)(C)C)c(CC(C)(C)C(=O)O)n2Cc1ccc(Cl)cc1)c1ccccn1 (stereo unspecified) | 8 nM | 270 nM | 4 nM | – |

Now from value to compound, other results behind:

| IC50 [1] | IC50 (Homo sapiens [2]; Homo sapiens, Blood) | IC50 (Homo sapiens [3]; Homo sapiens) | SMILES | further results |
| --- | --- | --- | --- | --- |
| 10 nM | > 3000 nM | 3 nM | CC(C)(C)Sc1c(CC(C)(C)C(=O)O)n(Cc2ccc(Cl)cc2)c2ccc(OCc3cc4ccccc4cn3)cc12 | – |
| 7 nM | – | – | CC(Oc1ccc2c(c1)c(SC(C)(C)C)c(CC(C)(C)C(=O)O)n2Cc1ccc(Cl)cc1)c1ccc2ccccc2n1 (single isomer, unassigned; (-)) | concentration at 2 h [4]: 4.2 µM; bioavailability [5]: 48%; IC50 (Homo sapiens [2]): 362 nM; ED50 (Rattus norvegicus [6]): 1 mg/kg; IC50 (Homo sapiens [3]): 5 nM; Functional activity in dyspnea model (Rattus norvegicus [7]): 45% |
| 16 nM | – | – | CC(Oc1ccc2c(c1)c(SC(C)(C)C)c(CC(C)(C)C(=O)O)n2Cc1ccc(Cl)cc1)c1ccc2ccccc2n1 (racemic) | IC50 (Homo sapiens [2]): 803 nM; IC50 (Homo sapiens [3]): 9 nM |
| 116 nM | – | – | CC(Oc1ccc2c(c1)c(SC(C)(C)C)c(CC(C)(C)C(=O)O)n2Cc1ccc(Cl)cc1)c1ccc2ccccc2n1 (stereo in doubt; 6) | IC50 (Homo sapiens [2]): > 3000 nM; IC50 (Homo sapiens [3]): 32 nM |
| 428 nM | – | – | CC(C)(C)Sc1c(CC(C)(C)C(=O)O)n(Cc2ccc(Cl)cc2)c2cc(OCc3ccc4ccccc4n3)ccc12 | – |
| – | – | 4 nM | CC(C)(C)Sc1c(CC(C)(C)C(=O)O)n(Cc2ccc(Cl)cc2)c2ccc(OCc3ccc4ccccc4n3)cc12 [QUIFLAPON] | concentration at 2 h [9]: 2.5 µM; bioavailability [5]: 24%; inhibition in vivo at 2.5 µg/kg/min (Canis familiaris [10]): 71%; inhibition in vivo at 2.5 µg/kg/min (Canis familiaris [11]): 94%; ED50 (Rattus norvegicus [12]): 0.51 mg/kg; ED50 (Rattus norvegicus [13]): 0.15 mg/kg; Functional activity in dyspnea model (Rattus norvegicus [7]): 51% |
| 16 nM | > 3000 nM | 4 nM | CC(C)(C)Sc1c(CC(C)(C)C(=O)O)n(Cc2ccc(Cl)cc2)c2ccc(CCc3ccc4ccccc4n3)cc12 | – |
| 2 nM | 980 nM | 3 nM | CC(C)(C)Sc1c(CC(C)(C)C(=O)O)n(Cc2ccc(Cl)cc2)c2ccc(OCc3ccc4cnccc4n3)cc12 | – |
| 26 nM | > 3000 nM | > 18 nM | CC(C)(C)Sc1c(CC(C)(C)C(=O)O)n(Cc2ccc(Cl)cc2)c2ccc(COCc3ccc4ccccc4n3)cc12 | – |
| 2 nM | > 3000 nM | 6 nM | CC(C)(C)Sc1c(CC(C)(C)C(=O)O)n(Cc2ccc(Cl)cc2)c2ccc(OCc3ccc4cccnc4n3)cc12 | – |
| 2 nM | 880 nM | 2 nM | CC(C)(C)Sc1c(CC(C)(C)C(=O)O)n(Cc2ccc(Cl)cc2)c2ccc(OCc3ccc4cc(F)ccc4n3)cc12 | – |
| 48 nM | – | – | CC(C)(C)Sc1c(CC(C)(C)C(=O)O)n(Cc2ccc(Cl)cc2)c2ccc(OCc3cnc4ccccc4c3)cc12 | – |
